Test results published in patent US20220079993A1, “NON-NATURALLY OCCURRING THERMOGENIC ADIPOCYTES, METHODS OF MAKING, AND METHODS OF USE THEREOF” (University of Georgia Research Foundation, Inc., priority 2019, published 2022).
Where a name gives a salt, the structure may show the parent alone. Read-outs that look alike come from different tables or passages of the source.

Columns and labels:
beige adipocytes [1] = assay: High-throughput primary screen, lipolysis assay (glycerol release), 384-well; type: cell-based, human; conditions: 20 μM; for % Control (relative levels of glycerol release): 24 hours of drug treatment, vs untreated beige adipocytes
Protocol: ADSCs were seeded at 5000 cell/cm^2 in 12-well plates, grown for 5 days and then induced to differentiate into GC for 20 days. […] Cells were treated with forskolin (20 μM) for indicated time periods and supernatant samples were collected. Lipolysis assay was performed with free glycerol reagent (Sigma, F6428-40ML), according to manufacturer instructions.
ADSCs were plated in 384-well plates at a density of 5000 cell/cm2 and grown to confluency over ˜4 days. Cells were then differentiated to beige adipocytes using B-8 medium for 21 days. All cell culture and incubations in the 384-well format were done at 37° C. and 5% CO2. […] The use of FDA-approved drugs may allow for re-purposing for therapeutic use.
(§1) Lipolysis assays were performed after 24 hours of drug treatment by measuring free glycerol released in the 384-well format, using the procedure described above. Absorbance for each compound was normalized to untreated control samples for each plate and calculated as a percent of the control. Cut-offs for “activating” and “inhibiting” compounds were set at 2-fold. Validation assays were performed for select compounds at a range of concentration doses.

beige adipocytes [2] = assay: Lipolysis validation assays of primary hits at three concentrations; type: cell-based, human; parameters: % of Control (1) / % of Control (2) / % of Control (3) / % of Control (4): unit of the concentration uncertain; conditions: for activity at 2.2 µM / activity at 6.7 µM / activity at 20 µM / activity at 2200 µM: Homo sapiens, Adipocyte, 24 h; for activity at 2.2 µM: Conc. 2.2 µM; for activity at 6.7 µM: Conc. 6.7 µM; for activity at 20 µM: Conc. 20 µM; for activity at 2200 µM: Conc. 2.2 mM
Protocol: ADSCs were seeded at 5000 cell/cm^2 in 12-well plates, grown for 5 days and then induced to differentiate into GC for 20 days. Prior to the assay, cells were washed in DPBS twice and then incubated with DMEM with 2% fatty-acid free BSA (Santa Crus, sc-500949) and Triascin C (5 μM). Cells were treated with forskolin (20 μM) for indicated time periods and supernatant samples were collected. Lipolysis assay was performed with free glycerol reagent (Sigma, F6428-40ML), according to manufacturer instructions.
as §1
Next, lipolysis assays were performed for all 111 compounds identified in the primary screen at three different concentrations, of which twenty-four were selected for further analysis based on their newness and/or reproducibility.

SMILES | % Control (relative levels of glycerol release) (beige adipocytes [1]) | activity at 2.2 µM (beige adipocytes [2]; read-out: % of Control (2)) | activity at 2.2 µM (beige adipocytes [2]; read-out: % of Control (4)) | activity at 6.7 µM (beige adipocytes [2]; read-out: % of Control (1)) | activity at 6.7 µM (beige adipocytes [2]; read-out: % of Control (2)) | activity at 6.7 µM (beige adipocytes [2]; read-out: % of Control (3)) | activity at 6.7 µM (beige adipocytes [2]; read-out: % of Control (4)) | activity at 20 µM (beige adipocytes [2]; read-out: % of Control (1)) | activity at 20 µM (beige adipocytes [2]; read-out: % of Control (2)) | activity at 20 µM (beige adipocytes [2]; read-out: % of Control (3)) | activity at 20 µM (beige adipocytes [2]; read-out: % of Control (4)) | activity at 2200 µM (beige adipocytes [2]; read-out: % of Control (1)) | activity at 2200 µM (beige adipocytes [2]; read-out: % of Control (3)) | also measured
CC(C)NCC(O)c1ccc(O)c(O)c1.Cl (racemic) [(±)-Isoproterenol hydrochloride] | 389.02 % control |  |  |  |  |  |  |  |  |  |  |  |  | 
O=C(Nc1c[nH]nc1-c1nc2ccc(CN3CCOCC3)cc2[nH]1)NC1CC1 [AT9283] |  | 115% | 133% | 151% | 152% | 161% | 177% | 132% | 144% | 202% | 159% | 163% | 142% | 
CC(=O)Nc1ccccc1 [Acetanilide] |  | 377% | 119% | 252% | 332% | 246% | 249% | 298% | 295% | 253% | 258% | 317% | 251% | 
CC(C)(C)NCC(O)COc1cccc2c1CCC(=O)N2.Cl (centres unmarked) [Carteolol HLC] | 32.31 % control |  |  |  |  |  |  |  |  |  |  |  |  | 
CCc1cnn2c(NCc3ccc[n+]([O-])c3)cc(N3CCCC[C@H]3CCO)nc12 [Dinaciclib] |  | 232% | 179% | 180% | 204% | 149% | 129% | 291% | 246% | 60.7% | 262% | 175% | 193% | 
CCOC(=O)C1=C(C)NC(C)=C(C(=O)OC)C1c1cccc(Cl)c1Cl (centres unmarked) [Felodipine] |  | 220% | 206% | 284% | 241% | 228% | 256% | 291% | 274% | 244% | 245% | 243% | 203% | 
CCC(NC(C)C)C(O)c1ccc(O)c(O)c1 (centres unmarked) [Isoetharine Mesylate] |  | 307% | 106% | 373% | 301% | 339% | 247% | 417% | 304% | 204% | 260% | 294% | 258% | 
CC(C)NCC(O)c1ccc(O)c(O)c1 (centres unmarked) [Isoproterenol HCl] |  | 272% | 251% | 284% | 294% | 241% | 236% | 289% | 268% | 252% | 237% | 282% | 236% | Outcome in the primary screen (glycerol release), in words (beige adipocytes [1]; 24 hours, cut-offs at 2-fold): identified as primary hits
C[C@@H]1CC(=O)NN=C1c1ccc(NN=C(C#N)C#N)cc1 [Levosimendan] |  | 163% | 236% | 197% | 189% | 211% | 246% | 261% | 280% | 247% | 340% | 215% | 189% | 
CC(Oc1c(Cl)cccc1Cl)C1=NCCN1 (centres unmarked) [Lofexidine HCl] |  | 115% | 91.4% | 122% | 176% | 180% | 149% | 205% | 200% | 148% | 191% | 104% | 119% | 
CC(C)C[C@H](NC(=O)CNC(=O)c1cc(Cl)ccc1Cl)B1OC(=O)C(CC(=O)O)(CC(=O)O)O1 [MLN9708] |  | 139% | 114% | 198% | 228% | 176% | 115% | 138% | 173% | 117% | 90% | 251% | 205% | 
CC(C)NCC(O)c1cc(O)cc(O)c1 (centres unmarked) [Metaproterenol Sulfate] |  | 298% | 305% | 311% | 412% | 293% | 283% | 305% | 293% | 308% | 274% | 327% | 291% | 
Cc1[nH]c(=O)c(C#N)cc1-c1ccncc1 [Milrinone] |  | 117% | 170% | 236% | 154% | 116% | 142% | 168% | 205% | 171% | 185% | 99% | 126% | 
CO[C@H]1CC[C@@H](O[C@H]2C[C@H]([C@]3(C)CC[C@]4(C[C@H](O)[C@@H](C)[C@@H]([C@@H](C)/C=C(\C)C(=O)[C@H](C)C[C@H](C)C(=O)O)O4)O3)O[C@]3(O[C@@H]([C@H]4O[C@@](O)(CO)[C@H](C)C[C@@H]4C)C[C@@H]3C)[C@@H]2C)O[C@@H]1C [Nanchangmycin] |  |  |  |  |  |  |  |  |  |  |  |  |  | % of Control (1) (beige adipocytes [2]; Conc. 2.2 (unit uncertain)): 259.29 % of Control; % of Control (2) (beige adipocytes [2]; Conc. 2.2 (unit uncertain)): 209.65 % of Control; % of Control (3) (beige adipocytes [2]; Conc. 2.2 (unit uncertain)): 192.42 % of Control; % of Control (4) (beige adipocytes [2]; Conc. 2.2 (unit uncertain)): 124.48 % of Control; % of Control (1) (beige adipocytes [2]; Conc. 6.7 (unit uncertain)): 196.07 % of Control; % of Control (2) (beige adipocytes [2]; Conc. 6.7 (unit uncertain)): 104.94 % of Control; % of Control (3) (beige adipocytes [2]; Conc. 6.7 (unit uncertain)): 147.69 % of Control; % of Control (4) (beige adipocytes [2]; Conc. 6.7 (unit uncertain)): 106.09 % of Control; % of Control (1) (beige adipocytes [2]; Conc. 20 (unit uncertain)): 147.14 % of Control; % of Control (2) (beige adipocytes [2]; Conc. 20 (unit uncertain)): 168.94 % of Control; % of Control (3) (beige adipocytes [2]; Conc. 20 (unit uncertain)): 98.9 % of Control; % of Control (4) (beige adipocytes [2]; Conc. 20 (unit uncertain)): 168.85 % of Control
CNC(=O)c1ccc(C)c(-n2c(C)cc(OCc3ccc(F)cc3F)c(Br)c2=O)c1 [PH-797804] | 38.23 % control |  |  |  |  |  |  |  |  |  |  |  |  | 
CNC[C@H](O)c1cccc(O)c1 [Phenylephrine HCl] |  | 253% | 240% | 271% | 266% | 240% | 232% | 353% | 373% | 248% | 232% | 338% | 221% | 
CC(C)NC[C@H](O)c1ccc(O)c(O)c1.O=C(O)C(O)C(O)C(=O)O [R(+)-Isoproterenol (+)-bitartrate] | 363.04 % control |  |  |  |  |  |  |  |  |  |  |  |  | 
COC1(C2=NCCN2)COc2ccccc2O1.Cl (centres unmarked) [RX 821002 hydrochloride] | 30.77 % control |  |  |  |  |  |  |  |  |  |  |  |  | 
CC(C)NC[C@@H](O)c1ccc(O)c(O)c1.O=C(O)C(O)C(O)C(=O)O [S(−)-Isoproterenol (+)-bitartrate] | 367.84 % control |  |  |  |  |  |  |  |  |  |  |  |  | 
Oc1ccc(-c2nc(-c3ccc(F)cc3)c(-c3ccncc3)[nH]2)cc1 [SB202190 (FHPI)] | 34.88 % control |  |  |  |  |  |  |  |  |  |  |  |  | 
C[n+]1cc2c3c(ccc2c2ccc4cc5c(cc4c21)OCO5)OCO3 [Sanguinarine] |  | 142% | 121% | 218% | 198% | 128% | 101% | 185% | 155% | 133% | 160% | 179% | 71.3% | 
